What all share (experiment): greenhouse post-emergence treatment, herbicidal activity
In one experiment the test system is PHBPU. The class given is in vivo, Pharbitis purpurea. On the procedure: (§1) The culture containers used were plastic pots containing loamy sand with approximately 2-3.0% of organic matter. The seeds of the test plants were sown separately for each species.
(§2) For the post-emergence treatment, the test plants were grown to a plant height of from 3 to 15 cm, depending on the plant habit, and only then treated with the active compounds which had been suspended or emulsified in water. To this end, the test plants were either sown directly, and grown in the same containers, or they were first grown separately as seedlings and transplanted into the test containers a few days prior to treatment.
(§3) Depending on the species, the plants were kept at 10-25° C. and 20-35° C., respectively. The test period extended over 2 to 4 weeks. During this time, the plants were tended and their response to the individual treatments was evaluated.
(§4) Evaluation was carried out using a scale from 0 to 100. 100 means no emergence of the plants, or complete destruction of at least the above-ground parts, and 0 means no damage or normal course of growth. A good herbicidal activity is given at values of at least 70, and very good herbicidal activity is given at values of at least 85.
(§5) In the examples below, using the method of S. R. Colby (1967) “Calculating synergistic and antagonistic responses of herbicide combinations”, Weeds 15, p. 22ff., the value E, which is expected if the activity of the individual active compounds is only additive, was calculated.
(§6) where X=percent activity using active compound A at an application rate a; Y=percent activity using active compound B at an application rate b; E=expected activity (in %) by A+B at application rates a+b.
(§7) where X=percent activity using active compound A at an application rate a; Y=percent activity using active compound B at an application rate b; Z=percent activity using active compound D at an application rate d; E=expected activity (in %) by A+B+D at application rates a+b+d.
(§8) If the value found experimentally is higher than the value E calculated according to Colby, a synergistic effect is present.
(§9) For preparation of the mixtures herbicides A were used in form of an aqueous solution comprising 22.5% by weight of the respective herbicide A. The herbicides B and D were used in form of the respective commercially available formulations as identified below. 1,5-dimethyl-6-thioxo-3-(2,2,7-trifluoro-3-oxo-4-(prop-2-ynyl)-3,4-dihydro-2H-benzo[b][1,4]oxazin-6-yl)-1,3,5-triazinane-2,4-dione (B.14) was used in form of 10% by weight suspension concentrate. If appropriate, the adjuvant DASH® HC was added to the mixtures.

Another experiment has as its system ERICA. The class given is in vivo, Erigeron canadensis. The protocol:
as §1, §2, §3, §4, §5, §6, §7, §8, §9

The next experiment has as its system PANDI. Format: in vivo, Panicum dichotomiflorun. The protocol: as §1, §2, §3, §4, §5, §6, §7, §8, §9
The next experiment deals with CYPES. Format: in vivo, Cyperus esculentus. Conditions: Example 6 (title: +1% by weight DASH® HC). On the procedure:
as §1, §2, §3
(§10) Evaluation was carried out using a scale from 0 to 100. […]
(§11) In the examples below, using the method of S. R. Colby (1967) “Calculating synergistic and antagonistic responses of herbicide combinations”, Weeds 15, p. 22ff., the value E, which is expected if the activity of the individual active compounds is only additive, was calculated. […]
(§12) If the value found experimentally is higher than the value E calculated according to Colby, a synergistic effect is present. […]

Another experiment has as its system ERBVI. Format: in vivo, Eriochloa villosa. Conditions: Example 4 (title: +1% by weight DASH® HC). On the procedure:
as §1, §2, §3, §10, §11, §12

The next experiment concerns ECHCG. The class given is in vivo, Echinochloa crus-galli. The protocol: as §1, §2, §3, §4, §5, §6, §7, §12
Another experiment has as its system DIGSA. The class given is in vivo, Digitaria sanguinales. On the procedure: as §1, §2, §3, §4, §5, §6, §7, §8, §9
The next experiment deals with COMBE. The class given is in vivo, Commelina benghalensis. On the procedure:
as §1, §2, §3, §10, §11, §12

For the next experiment, the system named is ABUTH. The class given is in vivo, Abutilon theophrasti. On the procedure: as §1, §2, §3, §4, §5, §6, §7, §12
The test system of another experiment is POLPE. The class given is in vivo, Polygonum persicaria. On the procedure: as §1, §2, §3, §4, §5, §6, §7, §8, §9
A further experiment deals with CHEAL. The class given is in vivo, Chenopodium album. On the procedure: as §1, §2, §3, §4, §5, §6, §7, §12
The test system of the next experiment is HELAN. Format: in vivo, Helianthus annuus. The protocol:
as §1, §2, §3, §4, §5, §6, §7, §8, §9

In a further experiment the test system is PHACA. Format: in vivo, Phalaris canariensis L. The settings on record: Example 10, 31.25 g/ha a.i. The protocol:
as §1, §2, §3, §10, §11, §12

A further experiment concerns BRADC. Format: in vivo, Brachiaria decumbens. On the procedure:
as §1, §2, §3, §10, §11, §12

For another experiment, the system named is BRAPP. The class given is in vivo, Urochloa platyphylla. Conditions: Example 10, 31.25 g/ha a.i. On the procedure: as §1, §2, §3, §10, §11, §12
The next experiment has as its system AMBEL. The class given is in vivo, Ambrosia artemisiifolia. The protocol:
as §1, §2, §3, §4, §5, §6, §7, §8, §9

The mark [1] stands for this setting: Example 5 (title: +1% by weight DASH® HC), post-emergence, B.28 31.25 g/ha a.i.
Where [2] appears, read: Example 5 (title: +1% by weight DASH® HC); post-emergence; a1) 31.25 g/ha a.i.

The structures appear in SMILES notation.

Regarding `Cc1ccc2c(c1)[C@H](Nc1nc(N)nc(C(C)F)n1)[C@@H](C)C2` (stereo partly shown) [B.28, indaziflam], the “herbicidal activity against PHBPU found” value turned out to be 98% with PHBPU (setting [1]) and 65% in the experiment on PHBPU (Example 7 (title: +1% by weight DASH® HC), post-emergence, 75 g/ha a.i.). Moreover, the “herbicidal activity against ERICA found” value in the experiment on ERICA (Example 7 (title: +1% by weight DASH® HC), 75 g/ha a.i.) was determined as 75%. Further, the “herbicidal activity against PANDI found” value is recorded as 80% in the experiment on PANDI (setting [1]) and 60% with PANDI (Example 6 (title: +1% by weight DASH® HC), post-emergence, 6.25 g/ha a.i.). In the experiment on CYPES (6.25 g/ha a.i.), the “herbicidal activity against CYPES found” value is listed as 55%.

Take `CC(C)N(C)S(=O)(=O)NC(=O)c1cc(-n2c(=O)cc(C(F)(F)F)n(C)c2=O)c(F)cc1Cl` [B.12, saflufenacil]: the “herbicidal activity against PANDI found” value with PANDI (Example 4 (title: +1% by weight DASH® HC), post-emergence, 6.25 g/ha a.i.) is listed as 95%. In addition, the “herbicidal activity against ERBVI found” value with ERBVI (6.25 g/ha a.i.) is on record as 80%.

As for `Cc1c(C(=O)c2cnn(C)c2O)ccc(S(C)(=O)=O)c1C1=NOCC1` [B.25, topramezone], the “herbicidal activity against ECHCG found” value in the experiment on ECHCG (Example 9, 12.5 g/ha a.i.) was found to be 40%. The “herbicidal activity against DIGSA found” value in the experiment with DIGSA (Example 2, 12.5 g/ha a.i.) is recorded as 65%; in the experiment on DIGSA (Example 9, 12.5 g/ha a.i.) it was 70%. Besides, the “herbicidal activity against COMBE found” value in the experiment on COMBE (Example 2, 12.5 g/ha a.i.) stood at 60%. In addition, in the experiment with ABUTH (Example 9, 25 g/ha a.i.), the “herbicidal activity against ABUTH found” value turned out to be 90%. Besides, in the experiment on POLPE (Example 2, 12.5 g/ha a.i.), the “herbicidal activity against POLPE found” value is reported as 75%. Also, the “herbicidal activity against CHEAL found” value in the experiment with CHEAL (Example 9, 12.5 g/ha a.i.) was 25%. In the experiment with HELAN (Example 2, 12.5 g/ha a.i.), the “herbicidal activity against HELAN found” value is reported as 80%.

`C/C=C1/CC2=C(C(=O)OC2=O)[C@H](CCC)[C@H](O)C(=O)C[C@@H]1O` [a1), cornexistin]: in the experiment on ECHCG (Example 9, 31.25 g/ha a.i.), the “herbicidal activity against ECHCG found” value was 30%. In addition, the “herbicidal activity against PHACA found” value in the experiment with PHACA is given as 25%. The “herbicidal activity against PHBPU found” value with PHBPU (setting [2]) was determined as 70%; in the experiment with PHBPU (Example 7 (title: +1% by weight DASH® HC), post-emergence, 31.25 g/ha a.i.), 70%. In addition, the “herbicidal activity against DIGSA found” value is 90% in the experiment on DIGSA (Example 2, 125 g/ha a.i.) and 25% in the experiment with DIGSA (Example 9, 31.25 g/ha a.i.). In addition, the “herbicidal activity against BRADC found” value with BRADC (Example 1, 125 g/ha a.i.) was found to be 50%. Also, the “herbicidal activity against ERICA found” value with ERICA (Example 3, 125 g/ha a.i.) is 40%; with ERICA (Example 7 (title: +1% by weight DASH® HC), 31.25 g/ha a.i.), 40%; with ERICA (Example 8 (title: +1% by weight DASH® HC), 31.25 g/ha a.i.), 20%. Besides, the “herbicidal activity against PANDI found” value with PANDI (Example 4 (title: +1% by weight DASH® HC), post-emergence, 62.5 g/ha a.i.) was found to be 95%; in the experiment with PANDI (setting [2]), 90%; with PANDI (Example 6 (title: +1% by weight DASH® HC), post-emergence, 62.5 g/ha a.i.), 95%. In addition, the “herbicidal activity against COMBE found” value in the experiment with COMBE (Example 2, 125 g/ha a.i.) was 60%. The “herbicidal activity against BRAPP found” value with BRAPP is given as 25%. Also, the “herbicidal activity against ABUTH found” value with ABUTH (Example 9, 31.25 g/ha a.i.) worked out at 60%. Also, the “herbicidal activity against POLPE found” value in the experiment on POLPE (Example 1, 125 g/ha a.i.) is listed as 60%; in the experiment on POLPE (Example 2, 125 g/ha a.i.), 60%. Also, the “herbicidal activity against CHEAL found” value in the experiment with CHEAL (Example 9, 31.25 g/ha a.i.) is 0%. Also, the “herbicidal activity against HELAN found” value in the experiment on HELAN (Example 2, 125 g/ha a.i.) was 20%; with HELAN (Example 3, 125 g/ha a.i.), 20%. Further, the “herbicidal activity against CYPES found” value in the experiment on CYPES (62.5 g/ha a.i.) amounted to 0%. The “herbicidal activity against ERBVI found” value in the experiment on ERBVI (62.5 g/ha a.i.) was 90%. Further, the “herbicidal activity against AMBEL found” value in the experiment on AMBEL (Example 3, post-emergence, 125 g/ha a.i.) amounted to 65%; with AMBEL (Example 11, post-emergence, 62.5 g/ha a.i.), 90%; in the experiment with AMBEL (Example 12; post-emergence; a1) 15 g/ha a.i.), 35%.

Take `CP(=O)(O)CCC(N)C(=O)O` (stereo not shown) [B.27, glufosinate]: the “herbicidal activity against ERICA found” value in the experiment on ERICA (Example 8 (title: +1% by weight DASH® HC), 100 g/ha a.i.) came out at 65%.

`COc1c(Cl)ccc(Cl)c1C(=O)O` [B.32, dicamba]: in the experiment on ERICA (Example 3, 60 g/ha a.i.), the “herbicidal activity against ERICA found” value is recorded as 95%. Moreover, in the experiment with HELAN (Example 3, 60 g/ha a.i.), the “herbicidal activity against HELAN found” value was 80%. In addition, the “herbicidal activity against AMBEL found” value in the experiment with AMBEL (Example 3, post-emergence, 60 g/ha a.i.) is listed as 85%.

`CCNc1nc(Cl)nc(NC(C)C)n1` [D.3, atrazine]: the “herbicidal activity against ECHCG found” value with ECHCG (Example 9, 150 g/ha a.i.) is reported as 0%. In addition, the “herbicidal activity against DIGSA found” value in the experiment on DIGSA (Example 9, 150 g/ha a.i.) worked out at 0%. Besides, in the experiment with ABUTH (Example 9, 150 g/ha a.i.), the “herbicidal activity against ABUTH found” value is reported as 60%. The “herbicidal activity against CHEAL found” value with CHEAL (Example 9, 150 g/ha a.i.) amounted to 35%.

`CCOC(=O)C(Cl)Cc1cc(-n2nc(C)n(C(F)F)c2=O)c(F)cc1Cl` (stereo not shown) [B.7, carfentrazone-ethyl]: the “herbicidal activity against AMBEL found” value with AMBEL (Example 11, post-emergence, 15 g/ha a.i.) worked out at 75%; in the experiment with AMBEL (Example 12, post-emergence, B.7 68 g/ha a.i.), 70%.

For `O=C(O)CNCP(=O)(O)O` [B.26, glyphosate], the “herbicidal activity against BRADC found” value in the experiment with BRADC (Example 1, 135 g/ha a.i.) is recorded as 80%. Also, in the experiment on POLPE (Example 1, 135 g/ha a.i.), the “herbicidal activity against POLPE found” value is on record as 60%. Also, in the experiment with AMBEL (Example 12, post-emergence, B.26 15 g/ha a.i.), the “herbicidal activity against AMBEL found” value was determined as 75%.

The record behind these values is US20150342193A1, “Herbicidal Composition” (priority 2012, published 2015).
